Reference: US8765433B2, “Alcohol dehydrogenases (ADH) useful for fermentive production of lower alkyl alcohols” (priority 2009, dated 2014)

Key:
Assay type in all cases: biochemical
[1] = molecular target: T1, Beijerinckia indica subsp. Indica ATCC 9039 ADH (BiADH), SEQ ID NO: 31 (Beijerinckia indica, UniProt B2IGW3)
T1 sequence (B2IGW3 1-347): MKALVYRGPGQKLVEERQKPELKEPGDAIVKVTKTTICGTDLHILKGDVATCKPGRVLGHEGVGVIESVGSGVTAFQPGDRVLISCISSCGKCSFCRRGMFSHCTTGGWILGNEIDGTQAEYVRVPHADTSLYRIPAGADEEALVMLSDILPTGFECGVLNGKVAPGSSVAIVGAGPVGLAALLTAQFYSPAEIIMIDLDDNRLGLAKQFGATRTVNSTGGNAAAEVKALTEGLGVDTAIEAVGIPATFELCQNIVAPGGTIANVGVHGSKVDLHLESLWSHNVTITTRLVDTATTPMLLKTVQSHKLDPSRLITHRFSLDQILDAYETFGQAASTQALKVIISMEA
Text: (§1) This example describes preparation of ADH-gene constructs for over-expression/purification and measurement of enzyme activities using a time-course assay. Horse-liver ADH (HLADH; A-6128) was purchased from Sigma. Achromobacter xylosoxidans SadB (SadB), Saccharomyces cerevisiae ADH6 (ScADH6) and ADH7 (ScADH7), Entamoeba histolytica ADH1 (EhADH1), Bos Taurus Aldehyde Reductase (BtARD), Beijerinckia indica subsp. Indica ATCC 9039 (BiADH), Clostridium beijerinckii ADH (CbADH), Rana perezi ADH8 (RpADH8), Rattus norvegicus ADH1 (RnADH1), Thermus sp. ATN1 ADH (TADH), Phenylobacterium zucineum HLK1 ADH (PzADH), Methylocella silvestris BL2 ADH (MsADH), Acinetobacter baumannii AYE ADH (AbADH), Geobacillus sp. WCH70 ADH (GbADH), Vanderwaltozyma polyspora DSM 70294 ADH (VpADH), Mucor circinelloides ADH (McADH), and Rhodococcus erythropolis PR4ADH (ReADH) were the candidates for which subclones were prepared for protein expression and purification.
(§2) As a routine practice, the crude extracts and purified proteins were assayed for butanol oxidation activity, in order to ensure that the recombinant proteins were active throughout the purification process. […] Alcohol oxidation activities were carried out in 50 mM sodium phosphate buffer at pH 8.8 and aldehyde reduction reactions were assayed in 190 mM potassium phosphate buffer at pH 7.0. Depending on the nature of reaction being carried out, the enzyme and cofactor stocks were diluted in the reaction buffers at the respective pHs. Either buffer or cell extract prepared from the proprietary E. coli strain (with no ADH plasmid) was used as the negative control for assays with purified protein and cell-free extracts, respectively.
(§3) Kinetic constants of the ADH enzymes were calculated and compared to identify those candidate ADH enzymes with the most desirable properties for the conversion of isobutyraldehyde to isobutanol in the last step of the engineered pathway for isobutanol production. The assays for determining the kinetic constants were carried out using initial rates from the assays described above. […] The concentration of a given enzyme was such that it was conducive for the measurement of initial velocities over a 1-min time course. For each enzyme, Michaelis-Menten plots were generated with a broad range of substrate concentrations. Rough estimates of KM were obtained, based on which the assays were redesigned so as to use substrate concentrations in the range 0.5 to 10 times the KM value, to be able to obtain the appropriate kinetic constants. […] Reactions with isobutanol substrate were performed at 30° C. in 50 mM Sodium phosphate buffer, pH 8.8, containing 7.5 mM NAD. The Enzyme kinetics module (Version 1.3) of SigmaPlot 11 (Systat Software, Inc.) was used to fit data to Michaelis-Menten equations and calculate the kinetic constants. The kcat/KM is derived from the individual numbers of kcat and KM and not an experimentally determined value.
(§4) For those enzymes marked with an asterisk in Table 7, at least 3 assays were performed with separate preparations of the enzyme. All other numbers are values from either one assay or are averages from 2 assays performed with the same enzyme sample.

[2] = molecular target: Achromobacter xylosoxidans SadB (SadB), SEQ ID NO: 26; test: isobutyraldehyde reduction kinetics (A340, initial rates)
Text: as §1, §2, §3, §4

[3] = molecular target: T2, Saccharomyces cerevisiae ADH7 (ScADH7), SEQ ID NO: 23 (Saccharomyces cerevisiae, UniProt P25377); test: as above
T2 sequence (P25377 1-361): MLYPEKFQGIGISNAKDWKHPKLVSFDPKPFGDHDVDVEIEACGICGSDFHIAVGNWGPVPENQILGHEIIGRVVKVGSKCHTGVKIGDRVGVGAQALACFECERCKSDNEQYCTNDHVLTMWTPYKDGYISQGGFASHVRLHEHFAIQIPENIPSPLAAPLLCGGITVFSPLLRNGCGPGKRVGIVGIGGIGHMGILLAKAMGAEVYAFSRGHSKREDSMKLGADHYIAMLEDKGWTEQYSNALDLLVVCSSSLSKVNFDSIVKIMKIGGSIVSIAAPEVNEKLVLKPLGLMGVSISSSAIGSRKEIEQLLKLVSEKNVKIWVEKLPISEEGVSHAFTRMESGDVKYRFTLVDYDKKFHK
Text: as §1, §2, §3, §4

[4] = molecular target: T3, Saccharomyces cerevisiae ADH6 (ScADH6), SEQ ID NO: 22 (Saccharomyces cerevisiae, UniProt Q04894); test: as above; settings: relative to SadB
T3 sequence (Q04894 1-360): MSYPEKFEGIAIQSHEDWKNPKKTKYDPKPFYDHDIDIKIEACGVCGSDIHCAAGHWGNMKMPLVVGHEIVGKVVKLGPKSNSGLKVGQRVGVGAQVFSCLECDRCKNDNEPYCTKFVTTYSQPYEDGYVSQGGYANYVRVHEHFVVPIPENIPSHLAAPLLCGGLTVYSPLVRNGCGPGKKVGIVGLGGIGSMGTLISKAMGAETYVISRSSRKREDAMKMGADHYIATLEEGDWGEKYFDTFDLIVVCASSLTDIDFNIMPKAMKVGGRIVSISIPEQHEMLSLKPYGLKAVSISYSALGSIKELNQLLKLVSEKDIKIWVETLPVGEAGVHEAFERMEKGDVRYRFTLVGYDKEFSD
Text: as §1, §2, §3, §4

[5] = molecular target: T4, horse liver ADH (HLADH), SEQ ID NO: 21 (Equus caballus, UniProt P00327); test: as above; settings: relative to SadB
T4 construct: purchased Sigma A-6128
Text: as §1, §2, §3, §4

T4 sequence (P00327 whole entry): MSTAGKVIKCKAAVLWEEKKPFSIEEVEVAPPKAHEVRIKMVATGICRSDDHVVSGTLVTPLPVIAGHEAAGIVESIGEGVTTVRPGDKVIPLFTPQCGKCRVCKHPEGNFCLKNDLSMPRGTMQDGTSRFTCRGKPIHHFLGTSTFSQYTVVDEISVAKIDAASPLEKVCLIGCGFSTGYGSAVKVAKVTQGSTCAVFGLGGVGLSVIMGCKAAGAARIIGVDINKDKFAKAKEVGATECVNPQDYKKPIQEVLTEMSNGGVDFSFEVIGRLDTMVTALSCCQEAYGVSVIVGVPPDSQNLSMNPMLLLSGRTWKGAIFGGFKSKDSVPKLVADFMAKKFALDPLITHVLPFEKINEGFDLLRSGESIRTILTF

CC(C)CO [isobutanol, 2-methylpropan-1-ol]
KI as a percentage of the same parameter for SadB ([1]; relative to SadB): 20% | KI as a percentage of the same parameter for SadB ([2]; reference (SadB itself)): 100% | Ki ([3]; read-out: KI (Isobutanol)): 88 mM | KI as a percentage of the same parameter for SadB ([3]; relative to SadB): 49% | KI as a percentage of the same parameter for SadB [4]: 650% | KI as a percentage of the same parameter for SadB [5]: 1%

CC(C)C=O [isobutyraldehyde]
catalytic efficiency for isobutyraldehyde reduction, BiADH relative to SadB ([1]; compared with SadB): ~12 times | KM as a percentage of the same parameter for SadB ([1]; relative to SadB): 20% | kcat as a percentage of the same parameter for SadB ([1]; relative to SadB): 260% | kcat/KM as a percentage of the same parameter for SadB ([1]; relative to SadB): 1192% | Km ([2]; 30° C., pH 7.0, 200 μM NADH, read-out: KM (Isobutanal)): 1000 µM | kcat ([2]; isobutyraldehyde reduction, 30° C., pH 7.0, 200 μM NADH): 109 s⁻¹ | KM as a percentage of the same parameter for SadB ([2]; reference (SadB itself)): 100% | kcat as a percentage of the same parameter for SadB ([2]; reference (SadB itself)): 100% | kcat/KM as a percentage of the same parameter for SadB ([2]; reference (SadB itself)): 100% | KM as a percentage of the same parameter for SadB ([3]; relative to SadB): 30% | kcat as a percentage of the same parameter for SadB ([3]; relative to SadB): 33% | kcat/KM as a percentage of the same parameter for SadB ([3]; relative to SadB): 114% | KM as a percentage of the same parameter for SadB [4]: 60% | kcat as a percentage of the same parameter for SadB [4]: 43% | kcat/KM as a percentage of the same parameter for SadB [4]: 77% | KM as a percentage of the same parameter for SadB [5]: 10% | kcat as a percentage of the same parameter for SadB [5]: 7% | kcat/KM as a percentage of the same parameter for SadB [5]: 78%
